The text below walks through data of PubChem BioAssay AID652063 (Molecular Libraries Program, Specialized Chemistry Center, …, 2013).

By IC50 is commonly meant the concentration needed to halve the response being measured.

Calls of active or inactive are those of the source. The rule behind the calls is not given here. Bounds are passed on as bounds.

For the assay, the system named is mouse cells, CHOP mRNA qRT-PCR. Nature of the assay: CHOP mRNA level inhibitors by qRT-PCR in mouse cells at medium throughput (AID 652063).

With `CCN=C1NN=C(c2cc(C)n(Cc3ccco3)c2C)CS1`, the IC50 is 3.73 µM (inactive).

With `Cc1cc(C(=O)COC(=O)c2ccccc2O)c(C)n1Cc1cccs1`, the IC50 was 6.12 µM (inactive). For the compound `CC(C)(C)c1ccc(-c2noc(CCC(N)=O)n2)cc1`, the IC50 is > 20 µM (inactive). The result for `CC(C)(C)c1ccc(C(=O)Nc2ccc(CC(=O)O)cc2)o1` reads > 20 µM (inactive). Turning to `Cc1cc(C2=NNC(=NC3CC3)SC2)c(C)n1-c1ccccc1F`, the IC50 was 2.89 µM (inactive). Regarding `Cc1cc(C2=NNC(=NC3CC3)SC2)c(C)n1-c1ccccc1`, the IC50 is 3.58 µM (inactive).

With `Cc1ccc(NC(=O)c2cc3ccccc3oc2=O)cc1S(=O)(=O)N(C)C`, the IC50 was > 20 µM (inactive). Turning to `CCOc1ccc(-c2nc(CSCC(=O)NCc3ccco3)c(C)o2)cc1`, the IC50 was 4.37 µM (inactive). The result for `Cc1nn(C(C)(C)C)c(C)c1/C=N/OC(=O)Nc1ccc(Cl)cc1` reads 18.4 µM (inactive). `Cc1ccc(NC(=O)O/N=C/c2c(C)nn(C(C)(C)C)c2C)cc1Cl`: the IC50 is 4.53 µM (inactive). To `C=CCn1c(C)cc(C2=NN=C(NCC)SC2)c1C` belongs 6.18 µM (inactive).
